Among the test systems are RXF 393; U-251; NCI-H522; ACHN; HOP-62; SK-MEL-2; MOLT-4; UACC-257; KM12; CAKI-1; SK-MEL-28; LXFL 529; DMS-114; A549; K562; HT-29; RPMI-8226.
Common to all, as to test: DTP human tumour cell line panel, 48 h

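96-well plates; 48 h exposure; 5 concentrations. Endpoints by linear interpolation between flanking doses. Not reached: highest tested concentration assigned. GI50 is the concentration that inhibits growth by half.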 Calls of active or inactive are those of the source. Cut-off read from the data, not from the text of the source: active = GI50 up to about 1.1 µM and inactive = higher.

By GI50 is commonly meant the concentration that inhibits growth by half.

Take `CC1CC2C3CCC4=CC(=O)C=CC4(C)C3(F)C(O)CC2(C)C1(O)C(=O)CO.Cc1cc(NS(=O)(=O)c2ccc(/N=N\c3cc(/N=N/c4ccc(S(=O)(=O)Nc5cc(C)nc(C)n5)cc4)c(OC(=O)C(Cl)Cl)c4cccc(NC(=O)C(Cl)Cl)c34)cc2)nc(C)n1`: the GI50 was 23.9 µM (inactive) with RXF 393; 18 µM (inactive) in the experiment on U-251; 15 µM (inactive) with NCI-H522; 19.5 µM (inactive) with ACHN; 35.2 µM (inactive) in the experiment on HOP-62; 29.4 µM (inactive) with SK-MEL-2. The GI50 is 27.4 µM (inactive) with MOLT-4; 29.9 µM (inactive) in the experiment with UACC-257; 16.6 µM (inactive) with KM12; 31.2 µM (inactive) in the experiment on CAKI-1; 27 µM (inactive) in the experiment on SK-MEL-28; 10 µM (inactive) with LXFL 529. Besides, the GI50 in the experiment with DMS-114 was 27.5 µM (inactive); with A549, 27 µM (inactive); in the experiment on K562, 30.6 µM (inactive); in the experiment on HT-29 it was 24.4 µM (inactive).

With `CCN(CC)c1c(C(=O)/C=C/c2ccccc2)c(-c2ccccc2)nn(C)c1=O`, the GI50 is 3.98 µM (inactive) in the experiment with RXF 393; 6 µM (inactive) with NCI-H522; 8.51 µM (inactive) in the experiment with ACHN; > 100 µM (inactive) with HOP-62; 1.66 µM (inactive) with MOLT-4; 8.17 µM (inactive) in the experiment with UACC-257. Further, the GI50 with KM12 is 4.18 µM (inactive); in the experiment with CAKI-1 it was > 100 µM (inactive); in the experiment with SK-MEL-28 it was 7.14 µM (inactive); in the experiment with LXFL 529, 5.01 µM (inactive); in the experiment on DMS-114, 5.32 µM (inactive); in the experiment with A549 it was 5.37 µM (inactive). In addition, the GI50 is 2.52 µM (inactive) with K562 and 5.48 µM (inactive) in the experiment on HT-29.

Consider `CCC1OCCN1C(C)C` (stereo unspecified), for which the GI50 in the experiment with RXF 393 is > 100 µM (inactive); in the experiment with U-251 it was > 100 µM (inactive); in the experiment on NCI-H522 it was 85.5 µM (inactive); in the experiment on ACHN, > 100 µM (inactive); in the experiment with SK-MEL-2 it was > 100 µM (inactive); in the experiment with MOLT-4, > 100 µM (inactive). For the same compound, the GI50 is 97.5 µM (inactive) in the experiment with UACC-257; > 100 µM (inactive) in the experiment on KM12; 60 µM (inactive) in the experiment on RPMI-8226; 32.8 µM (inactive) with SK-MEL-28; > 100 µM (inactive) with LXFL 529; 85.9 µM (inactive) in the experiment with DMS-114. The GI50 in the experiment with A549 and in the experiment with K562 was > 100 µM (inactive) in each case.

Consider `COC(=O)[C@@]12C=CC(=O)[C@H]3C[C@@H](C(C(C)C)C1)[C@]32OC` (stereo partly specified), for which the GI50 with RXF 393, in the experiment with U-251, in the experiment with ACHN, in the experiment with HOP-62, in the experiment on SK-MEL-2 and with MOLT-4 was > 100 µM (inactive) throughout. Also, the GI50 in the experiment on UACC-257, in the experiment on KM12, in the experiment with CAKI-1, in the experiment on RPMI-8226, in the experiment on SK-MEL-28 and with LXFL 529 was > 100 µM (inactive) in each case. In addition, the GI50 in the experiment on DMS-114, with A549, in the experiment on K562 and in the experiment on HT-29 was > 100 µM (inactive) each time.

Consider `N#Cc1ccccc1Nc1ccccc1S`, for which the GI50 with RXF 393 was 18.9 µM (inactive); with U-251 it was > 10 µM (inactive); in the experiment with ACHN, 51.1 µM (inactive); in the experiment with HOP-62 it was 46.7 µM (inactive); in the experiment on SK-MEL-2, 56.4 µM (inactive); in the experiment on MOLT-4, 5.4 µM (inactive). Besides, the GI50 is 57.3 µM (inactive) with UACC-257; 38.2 µM (inactive) in the experiment with KM12; > 100 µM (inactive) with CAKI-1; 41.2 µM (inactive) in the experiment with SK-MEL-28; 22.5 µM (inactive) with LXFL 529; 21.8 µM (inactive) with DMS-114. Also, the results for the GI50 in the experiment with A549, in the experiment on K562 and with HT-29 were 30.7 µM (inactive), 26 µM (inactive) and 57.8 µM (inactive), respectively.

As for `CC1(C)SCc2nc3ncccc3n21`, the GI50 in the experiment on RXF 393, in the experiment on U-251, with NCI-H522, in the experiment with ACHN, in the experiment on HOP-62 and in the experiment with SK-MEL-2 was > 100 µM (inactive) throughout. The GI50 in the experiment on MOLT-4, in the experiment with UACC-257, with KM12, in the experiment on CAKI-1, with RPMI-8226 and in the experiment on SK-MEL-28 was > 100 µM (inactive) each time. For the same compound, the GI50 in the experiment with LXFL 529, in the experiment on DMS-114, with A549, in the experiment with K562 and in the experiment on HT-29 was > 100 µM (inactive) each time.

As to `COc1ccc2oc3cccc(NCCN(C)C)c3c(=O)c2c1`, the GI50 was 13.2 µM (inactive) in the experiment with RXF 393; 12.7 µM (inactive) in the experiment on U-251; 10.5 µM (inactive) in the experiment with ACHN; 15.2 µM (inactive) with HOP-62; 16.5 µM (inactive) with SK-MEL-2; 4.01 µM (inactive) in the experiment with MOLT-4. In addition, the GI50 with UACC-257 was 16.3 µM (inactive); in the experiment on KM12 it was 13.1 µM (inactive); in the experiment on CAKI-1 it was 4.69 µM (inactive); in the experiment with RPMI-8226, 12.6 µM (inactive); in the experiment on SK-MEL-28, 18.2 µM (inactive); in the experiment on LXFL 529, 13.1 µM (inactive). The GI50 in the experiment on DMS-114 is 12.9 µM (inactive); with A549, 14.2 µM (inactive); in the experiment with K562, 9.35 µM (inactive); in the experiment on HT-29 it was 7.83 µM (inactive).

As to `O=C(O)/C(Cl)=C(\Cl)C(=O)Nc1ccc(Cl)c(Cl)c1Cl`, the GI50 with U-251 was 19.5 µM (inactive); in the experiment with NCI-H522, 10.9 µM (inactive); in the experiment with ACHN it was 18.1 µM (inactive); in the experiment with HOP-62, 29.5 µM (inactive); in the experiment with SK-MEL-2 it was 18.2 µM (inactive); in the experiment on MOLT-4 it was 23.8 µM (inactive). Moreover, the GI50 with UACC-257 is 18.5 µM (inactive); in the experiment with KM12 it was 19.4 µM (inactive); in the experiment with CAKI-1, 18.1 µM (inactive); in the experiment on RPMI-8226, 28.9 µM (inactive); with SK-MEL-28, 27.9 µM (inactive); in the experiment on LXFL 529, 20.1 µM (inactive). Moreover, the GI50 is 20.8 µM (inactive) in the experiment with DMS-114, 18.5 µM (inactive) in the experiment on A549, 28 µM (inactive) in the experiment with K562 and 20.3 µM (inactive) in the experiment on HT-29.

With `CC(C)(C)C1=CC(=NNC(=S)NCc2ccccc2)C=C(C(C)(C)C)C1=O`, the GI50 in the experiment on RXF 393 was 78.9 µM (inactive); in the experiment with U-251, 94.2 µM (inactive); in the experiment on ACHN, 67.1 µM (inactive); in the experiment with HOP-62, > 100 µM (inactive); in the experiment with SK-MEL-2 it was > 100 µM (inactive); in the experiment on MOLT-4, 66.1 µM (inactive). Further, the GI50 in the experiment with UACC-257 was 91.6 µM (inactive); in the experiment with RPMI-8226, > 100 µM (inactive); with SK-MEL-28, > 100 µM (inactive); in the experiment with LXFL 529, 63.1 µM (inactive); in the experiment with DMS-114, 54.8 µM (inactive); in the experiment with A549, 42.7 µM (inactive). Also, the GI50 in the experiment with K562 was 83 µM (inactive); in the experiment on HT-29 it was 73.1 µM (inactive).

As to `CCOC(OCC)C(CC)[Se]c1ccccc1` (stereo unspecified), the GI50 is 55.2 µM (inactive) in the experiment on RXF 393; 2.25 µM (inactive) with U-251; 15.6 µM (inactive) with NCI-H522; > 100 µM (inactive) in the experiment with ACHN; > 100 µM (inactive) in the experiment with HOP-62; > 100 µM (inactive) in the experiment with SK-MEL-2. Further, the GI50 in the experiment with MOLT-4 was 37.2 µM (inactive); with UACC-257, > 100 µM (inactive); with KM12, > 100 µM (inactive); in the experiment on CAKI-1 it was > 100 µM (inactive); in the experiment on RPMI-8226 it was 18.3 µM (inactive); in the experiment with SK-MEL-28, > 100 µM (inactive). Moreover, the GI50 in the experiment on LXFL 529 is 35.6 µM (inactive); with DMS-114, 2.82 µM (inactive); in the experiment on A549, > 100 µM (inactive); in the experiment with K562, > 100 µM (inactive); in the experiment with HT-29 it was > 100 µM (inactive).

In the case of `CC(N)C(=O)OCN1C(=O)C2C3C=CC(C2C1=O)C1C2C(=O)N(COC(=O)C(C)N)C(=O)C2C31` (stereo unspecified), the GI50 was 22.2 µM (inactive) in the experiment on RXF 393; 24.5 µM (inactive) in the experiment on U-251; 27.7 µM (inactive) in the experiment on ACHN; > 100 µM (inactive) in the experiment on HOP-62; 20.6 µM (inactive) in the experiment with SK-MEL-2; 21.5 µM (inactive) in the experiment with MOLT-4. For the same compound, the GI50 in the experiment with UACC-257 was 31.4 µM (inactive); in the experiment on KM12 it was 20.3 µM (inactive); with CAKI-1 it was 72.6 µM (inactive); in the experiment with RPMI-8226, 23.9 µM (inactive); in the experiment with SK-MEL-28 it was 21.9 µM (inactive); in the experiment on LXFL 529 it was 26.4 µM (inactive). Also, the GI50 in the experiment on DMS-114 is 17 µM (inactive); in the experiment with A549, 32.9 µM (inactive); with K562 it was 24.8 µM (inactive); in the experiment with HT-29, 34.6 µM (inactive).

As to `C=CCc1cc2cccc(OC)c2oc1=O`, the GI50 with U-251 is > 100 µM (inactive); with NCI-H522, 6.9 µM (inactive); with ACHN, > 100 µM (inactive); in the experiment with HOP-62 it was > 100 µM (inactive); in the experiment with SK-MEL-2, > 100 µM (inactive); in the experiment on MOLT-4, 63.4 µM (inactive). Moreover, the GI50 with UACC-257 was > 100 µM (inactive); in the experiment on KM12 it was > 100 µM (inactive); in the experiment on CAKI-1, > 100 µM (inactive); with RPMI-8226, > 100 µM (inactive); with SK-MEL-28, > 100 µM (inactive); with LXFL 529, 57 µM (inactive). The GI50 is 80.5 µM (inactive) in the experiment on DMS-114, > 100 µM (inactive) in the experiment on A549, 75.5 µM (inactive) with K562 and > 100 µM (inactive) in the experiment with HT-29.

`COc1cc2c(c(OC)c1OC)-c1ccc(SC)c(=O)cc1[C@@H](NC(=O)c1ccc(Cl)cc1)CC2`: the concentration for 50% growth inhibition (GI50) in the experiment on RXF 393, in the experiment with U-251, in the experiment with ACHN, with HOP-62, with SK-MEL-2 and in the experiment with MOLT-4 was < 0.01 µM (active) in each case. The GI50 is < 0.01 µM (active) in the experiment on UACC-257; < 0.01 µM (active) in the experiment with RPMI-8226; 13.9 µM (inactive) in the experiment with SK-MEL-28; < 0.01 µM (active) with LXFL 529; < 0.01 µM (active) in the experiment on DMS-114; < 0.01 µM (active) in the experiment with A549. The GI50 in the experiment with K562 and with HT-29 was < 0.01 µM (active) in each case.
